The results in this text go back to patent US8691850B2, “Substituted phenylaminothiazoles and use thereof” (Bayer Intellectual Property GmbH, priority 2004, dated 2014).

As a reminder, the melting point is the temperature, or range, at which the solid turns liquid. In the case of `N#Cc1c(N)nc(SCc2csc(Nc3cccc(Cl)c3)n2)c(C#N)c1-c1ccc(OCC(O)CO)cc1` (stereo not shown) [Example 1, 2-Amino-6-[({2-[(3-chlorophenyl)amino]-1,3-thiazol-4-yl}methyl)thio]-4-[4-(2,3-dihydroxypropoxy)phenyl]pyridine-3,5-dicarbonitrile], the melting point lay within 192 to 194 °C.
